Laboratory results published in patent US20240092799A1, “MNK INHIBITORS” (Hepagene Therapeutics (HK) Limited, priority 2020, published 2024).

Columns and labels:
[1] = molecular target: MNK2 (Homo sapiens (Human), UniProt Q9HBH9); experiment: MNK Biochemical Enzymatic Assay (ADP-Glo), MNK2 binding assay
Method in brief: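 Human MNK1 or MNK2 was preincubated with a 10-point, 1:3 serial dilution of compound for 15 min at 25 °C. Substrate was then added and the reaction ran 60 min at 25 °C. ADP formed was read by ADP-Glo luminescence, and IC50 came from non-linear regression.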

[2] = molecular target: MNK1 (Homo sapiens (Human), UniProt Q9BUB5); experiment: MNK Biochemical Enzymatic Assay (ADP-Glo), MNK1 binding assay
Protocol: MNK Biochemical Enzymatic Assay. This protocol establishes the binding assays for MNK1 and MNK2 using ADP-Glo assay. MNK phosphorylates the substrate and converts ATP to ADP, which was detected by Envision and used to reflect the reminding activity of MNK. Reagents and equipment used in the assay are listed below, followed by the protocol.
• a) Add 50 μL compound to 384-well dilution plate • b) Dilute compound 1:3 in succession in DMSO for each column for 10+0 pts (refer to dilution plate map) • c) Transfer 0.1 μL diluted compound solution in each row to 384 assay plate using Echo, each column containing 2 replicates (refer to assay plate map) • d) Add 5 μL enzyme working solution to 384-well assay plate, centrifuge 1000 RPM for 1 min • e) Incubate at 25° C. for 15 min • f) Add 5 μL substrate working solution to initiate reaction • g) Incubate at 25° C. for 60 min • h) Add 10 μL ADP Glo reagent, centrifuge 1000 RPM for 1 min • i) Incubate at 25° C. for 60 min • j) Add 20 μL kinase detection reagent, centrifuge 1000 RPM for 1 min • k) Incubate at 25° C. for 60 min • l) Read on Envision for US LUM as RLU • m) Data analysis: IC50s were determined based on a non-linear regression analysis of data collected.

Sequence of MNK1 (Q9BUB5 other isoform, or with tags, fused parts or gaps isoform Q9BUB5-2): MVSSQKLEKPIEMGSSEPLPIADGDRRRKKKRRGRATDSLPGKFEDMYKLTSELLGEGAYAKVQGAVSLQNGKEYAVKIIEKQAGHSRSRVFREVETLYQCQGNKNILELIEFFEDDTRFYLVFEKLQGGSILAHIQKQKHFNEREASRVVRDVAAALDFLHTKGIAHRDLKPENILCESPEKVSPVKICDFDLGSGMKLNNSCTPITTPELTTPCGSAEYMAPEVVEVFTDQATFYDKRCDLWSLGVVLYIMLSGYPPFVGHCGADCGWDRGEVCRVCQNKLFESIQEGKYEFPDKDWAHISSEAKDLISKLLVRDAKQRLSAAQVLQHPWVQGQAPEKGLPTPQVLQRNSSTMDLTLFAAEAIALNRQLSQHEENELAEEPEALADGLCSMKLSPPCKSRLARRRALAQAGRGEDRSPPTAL
Sequence of MNK2 (Q9HBH9 whole entry): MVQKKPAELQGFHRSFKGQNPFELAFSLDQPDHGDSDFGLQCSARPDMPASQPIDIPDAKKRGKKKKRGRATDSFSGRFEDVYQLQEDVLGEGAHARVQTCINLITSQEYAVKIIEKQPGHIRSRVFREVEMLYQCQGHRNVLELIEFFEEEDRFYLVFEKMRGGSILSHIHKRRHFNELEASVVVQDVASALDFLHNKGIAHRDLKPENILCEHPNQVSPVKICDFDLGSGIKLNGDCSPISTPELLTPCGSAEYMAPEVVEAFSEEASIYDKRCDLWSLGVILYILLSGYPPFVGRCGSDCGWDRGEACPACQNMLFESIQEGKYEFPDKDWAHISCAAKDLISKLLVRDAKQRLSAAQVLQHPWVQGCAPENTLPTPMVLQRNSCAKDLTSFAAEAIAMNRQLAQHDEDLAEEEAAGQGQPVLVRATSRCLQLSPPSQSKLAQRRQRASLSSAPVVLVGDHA

| Compound | IC50 [1] | IC50 [2] |
| --- | --- | --- |
| Nc1cc(Nc2c(=O)n3c(c4ccccc24)C(=O)NC32CCCCC2)ncn1 [Compound III, 6′-((6-Aminopyrimidin-4-yl)amino)-2′H-spiro[cyclohexane-1,3′-imidazo[5,1-a]isoquinoline]-1′,5′-dione] | > 1 µM | > 1 µM |
| Cc1cc(Nc2cc(N)ncn2)c(=O)n2c1C(=O)N[C@]21C[C@H]2CC[C@@H]1C2 [Compound IIa, (1R,2R,4S)-6′-((6-Aminopyrimidin-4-yl)amino)-8′-methyl-2′H-spiro[bicyclo[2.2.1]heptane-2,3′-imidazo[1,5-a]pyridine]-1′,5′-dione] | 0.0001 to 0.01 µM | 0.0001 to 0.01 µM |
| Cc1cc(Nc2cc(N)ncn2)c(=O)n2c1C(=O)N[C@@]21C[C@H]2CC[C@@H]1C2 [Compound IIb, (1R,2S,4S)-6′-((6-aminopyrimidin-4-yl)amino)-8′-methyl-2′H-spiro[bicyclo[2.2.1]heptane-2,3′-imidazo[1,5-a]pyridine]-1′,5′-dione] | 0.0001 to 0.01 µM | 0.0001 to 0.01 µM |
